Laboratory results reported in US7056900B2, “Disaccharide derivatives for treating hyperglycaemia” (Sudzucker Aktiengesellschaft Mannheim Ochsenfurt, priority 1997, dated 2006).
“Also recorded” adds a separate entry of the source. Read-outs that look alike come from different tables or passages of the source.

Columns and labels:
Assay type in all cases: biochemical, hog
sucrase/isomaltase (SI) [1] = target: T1, sucrase/isomaltase (SI) (Sus scrofa, UniProt P56729); test: Cleavage on incubation (24 hours) with SI; settings: 37° C.
T1 sequence (P56729 with tags, fused parts or gaps): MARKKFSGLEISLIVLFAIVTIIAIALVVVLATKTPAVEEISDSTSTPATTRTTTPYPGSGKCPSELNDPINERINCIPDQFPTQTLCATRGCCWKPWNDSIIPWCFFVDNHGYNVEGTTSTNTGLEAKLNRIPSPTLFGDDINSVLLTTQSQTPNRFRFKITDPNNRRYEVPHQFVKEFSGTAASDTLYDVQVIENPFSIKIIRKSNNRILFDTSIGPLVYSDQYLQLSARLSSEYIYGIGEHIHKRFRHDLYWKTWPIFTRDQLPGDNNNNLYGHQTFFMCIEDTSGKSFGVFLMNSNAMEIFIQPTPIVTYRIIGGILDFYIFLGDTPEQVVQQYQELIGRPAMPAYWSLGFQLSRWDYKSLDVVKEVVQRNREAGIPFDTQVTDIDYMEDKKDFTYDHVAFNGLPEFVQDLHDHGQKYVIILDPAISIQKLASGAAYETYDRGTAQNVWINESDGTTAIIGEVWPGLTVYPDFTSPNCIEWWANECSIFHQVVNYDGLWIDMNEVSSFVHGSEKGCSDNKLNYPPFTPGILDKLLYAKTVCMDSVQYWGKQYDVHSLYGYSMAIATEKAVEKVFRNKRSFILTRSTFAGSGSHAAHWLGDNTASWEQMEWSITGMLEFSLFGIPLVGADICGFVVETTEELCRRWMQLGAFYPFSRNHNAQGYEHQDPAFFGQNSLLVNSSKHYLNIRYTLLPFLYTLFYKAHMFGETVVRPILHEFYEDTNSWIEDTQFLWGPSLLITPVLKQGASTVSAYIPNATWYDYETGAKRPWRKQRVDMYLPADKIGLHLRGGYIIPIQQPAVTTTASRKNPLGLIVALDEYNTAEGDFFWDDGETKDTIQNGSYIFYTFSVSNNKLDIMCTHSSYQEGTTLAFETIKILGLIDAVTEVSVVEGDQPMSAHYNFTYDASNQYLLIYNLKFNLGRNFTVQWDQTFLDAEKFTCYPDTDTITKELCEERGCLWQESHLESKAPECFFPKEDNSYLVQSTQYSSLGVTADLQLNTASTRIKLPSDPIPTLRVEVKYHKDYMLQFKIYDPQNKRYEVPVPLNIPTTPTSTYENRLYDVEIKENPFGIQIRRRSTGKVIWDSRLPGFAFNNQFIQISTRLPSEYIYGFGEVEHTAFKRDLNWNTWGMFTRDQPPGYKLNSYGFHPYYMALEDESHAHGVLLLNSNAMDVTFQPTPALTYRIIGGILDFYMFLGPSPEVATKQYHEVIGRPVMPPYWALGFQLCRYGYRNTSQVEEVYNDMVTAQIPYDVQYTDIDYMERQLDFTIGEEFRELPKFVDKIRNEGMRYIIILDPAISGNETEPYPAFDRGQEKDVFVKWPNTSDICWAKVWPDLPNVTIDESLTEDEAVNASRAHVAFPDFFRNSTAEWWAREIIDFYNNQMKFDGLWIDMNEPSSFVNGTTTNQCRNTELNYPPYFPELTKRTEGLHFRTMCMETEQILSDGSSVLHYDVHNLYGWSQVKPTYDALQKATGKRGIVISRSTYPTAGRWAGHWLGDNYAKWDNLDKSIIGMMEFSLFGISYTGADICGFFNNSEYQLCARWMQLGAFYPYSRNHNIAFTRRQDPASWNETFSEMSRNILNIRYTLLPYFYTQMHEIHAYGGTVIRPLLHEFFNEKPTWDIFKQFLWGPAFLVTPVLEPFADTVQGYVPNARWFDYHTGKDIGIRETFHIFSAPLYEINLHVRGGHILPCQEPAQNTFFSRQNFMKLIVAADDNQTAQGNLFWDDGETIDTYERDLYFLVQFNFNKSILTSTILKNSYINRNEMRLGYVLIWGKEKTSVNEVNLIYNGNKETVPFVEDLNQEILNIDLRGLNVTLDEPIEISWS
Description: (§1) Sucrase/isomaltase (SI) and glucoamylase/maltase (GM) were isolated by papain digestion from hog small intestine mucosa and enriched by ammoniumsulfate precipitation. […] D) A study was first made as to what extent the inventive disaccharide derivatives and comparison substances, that is to say sucrose and maltose, were cleaved by SI or by GM during incubation for 24 hours. [table]

sucrase/isomaltase (SI) [2] = target: T1, sucrase/isomaltase (SI); test: Inhibition of SI-catalyzed hydrolysis of sucrose (SI/sucrose), coupled HK/G6PDH optical test
From the text: (§2) A) The activity of the SI enzyme complex was studied using three different substrates, that is to say sucrose, maltose and isomaltose.
(§3) Sucrase/isomaltase (SI) and glucoamylase/maltase (GM) were isolated by papain digestion from hog small intestine mucosa and enriched by ammoniumsulfate precipitation. The enzymes were separated into isolated sucrase/isomaltase (SI) and glucoamylase/maltase (GM) via an ion exchanger (DEAE cellulose), and a following fine fractionation using gel filtration on a Superdex 200 column from Pharmacia.
(§4) B) In the methods described hereinafter for determining the enzyme activity of sucrase/isomaltase and glucoamylase/maltase under the influence of the substances tested, the amount of glucose or fructose released was determined as measured parameter. This took place in an enzymatic optical test using hexokinase (HK) and glucose-6-phosphate dehydrogenase (G6PDH) as a coupled detection system (Beutler, H.-O.; in: Methods of Enzymatic Analysis; Bergmeyer, H. U.; Bergmeyer, J.; Graβl, M. (editors); 3rd edition; Vol. VI, 2–10). The measurement was made at 37° C. and a pH of 7.0.
(§5) The table below reports the composition of the assays necessary for the individual tests. In individual tests, the semimicro assay was used, but this was reduced in some cases to a micro assay.
(§6) C) Before the inhibitor strengths were determined, for each enzyme-substrate combination basic kinetics were established in which not only the Michaelis-Menten constant (KM [mmol/l]) but also the maximum velocity (Vmax [μmol/mLmin]) were determined. For the enzyme/substrate combination SI/sucrose, a substrate concentration of from 1.24 to 124 mmol/L was used, for the enzyme/substrate combination SI/maltose a substrate concentration of from 0.62 to 24.8 mmol/L was used, for the enzyme/substrate combination SI/isomaltose a substrate concentration of from 3.6 to 57.6 mmol/L was used and for the enzyme/substrate combination GM/maltose a substrate concentration of from 0.31 to 12.4 mmol/L was used in the assay.
(§7) The level of the inhibitor concentrations used depended on the strength of the resulting inhibition. For each of the enzyme-substrate combinations, 3 to 4 sets of kinetics at different inhibitor concentrations were established. The inhibitor constants Ki and Kii were, unless stated otherwise, determined from secondary Lineweaver-Burk plots.

sucrase/isomaltase (SI) [3] = target: T1, sucrase/isomaltase (SI); test: Inhibition of SI-catalyzed hydrolysis of maltose (SI/maltose), coupled HK/G6PDH optical test
From the text: (§8) A) The activity of the SI enzyme complex was studied using three different substrates, that is to say sucrose, maltose and isomaltose. The maltase activity was studied using the substrate maltose. Sucrase/isomaltase (SI) and glucoamylase/maltase (GM) were isolated by papain digestion from hog small intestine mucosa and enriched by ammoniumsulfate precipitation. […] B) In the methods described hereinafter for determining the enzyme activity of sucrase/isomaltase and glucoamylase/maltase under the influence of the substances tested, the amount of glucose or fructose released was determined as measured parameter. This took place in an enzymatic optical test using hexokinase (HK) and glucose-6-phosphate dehydrogenase (G6PDH) as a coupled detection system (Beutler, H.-O.; in: Methods of Enzymatic Analysis; Bergmeyer, H. U.; Bergmeyer, […] edition; Vol. […] The measurement was made at 37° C. and a pH of 7.0. The table below reports the composition of the assays necessary for the individual tests. In individual tests, the semimicro assay was used, but this was reduced in some cases to a micro assay. […] C) Before the inhibitor strengths were determined, for each enzyme-substrate combination basic kinetics were established in which not only the Michaelis-Menten constant (KM [mmol/l]) but also the maximum velocity (Vmax [μmol/mLmin]) were determined. […] The level of the inhibitor concentrations used depended on the strength of the resulting inhibition. For each of the enzyme-substrate combinations, 3 to 4 sets of kinetics at different inhibitor concentrations were established. The inhibitor constants Ki and Kii were, unless stated otherwise, determined from secondary Lineweaver-Burk plots.

[4] = tested on: glucoamylase/maltase (GM); test: Inhibition of GM-catalyzed hydrolysis of maltose (GM/maltose), coupled HK/G6PDH optical test; settings: for KM/Ki / inhibitor strength (in words) / Ki: GM/maltose; for Ki: secondary Lineweaver-Burk plots
Description: as §8, with “The” for “A) The activity of the SI enzyme complex was studied using three different substrates, that is to say sucrose, maltose and isomaltose. The”

[5] = tested on: glucoamylase/maltase (GM); test: Cleavage on incubation (24 hours) with GM; settings: 37° C.
Description: as §1

sucrase/isomaltase (SI) [6] = target: T1, sucrase/isomaltase (SI); test: Inhibition of SI-catalyzed hydrolysis of isomaltose (SI/isomaltose), coupled HK/G6PDH optical test; design: isolated by papain digestion from hog small intestine mucosa and enriched by ammoniumsulfate precipitation; from tissue; host or cells: hog small intestine mucosa; key to Type (of inhibition): K means competitive inhibition; NK means noncompetitive inhibition; UK means uncompetitive inhibition; settings: for KM/Ki / Type (of inhibition) / inhibitor strength (in words) / Ki: SI/isomaltose; for Ki: secondary Lineweaver-Burk plots
From the text: as §2
The isomaltase activity was studied using the substrate isomaltose.
as §3, §4, §5, §6, §7

[7] = cleavage product detected: fructose
[8] = cleavage product detected: glucose
[9] = SI/sucrose, secondary Lineweaver-Burk plots, read-out: Ki
[10] = SI/sucrose, secondary Lineweaver-Burk plots, read-out: Kii
[11] = SI/maltose, secondary Lineweaver-Burk plots, read-out: Ki
[12] = SI/maltose, secondary Lineweaver-Burk plots, read-out: Kii

Molecule	SI conversion rate (sucrase/isomaltase (SI) [1]; [8]) [%]	SI conversion rate (sucrase/isomaltase (SI) [1]; [7]) [%]	KM/Ki (sucrase/isomaltase (SI) [2]; SI/sucrose)	inhibitor strength (in words) (sucrase/isomaltase (SI) [2]; SI/sucrose)	Ki (sucrase/isomaltase (SI) [2]; [9]) [mM]	Ki (sucrase/isomaltase (SI) [2]; [10]) [mM]	KM/Ki (sucrase/isomaltase (SI) [3]; SI/maltose)	inhibitor strength (in words) (sucrase/isomaltase (SI) [3]; SI/maltose)	Ki (sucrase/isomaltase (SI) [3]; [11]) [mM]	Ki (sucrase/isomaltase (SI) [3]; [12]) [mM]	KM/Ki [4]	inhibitor strength (in words) [4]	Ki ([4]; read-out: Ki) [mM]	GM conversion rate [5, 7] [%]	KM/Ki (sucrase/isomaltase (SI) [6])	Type (of inhibition) (sucrase/isomaltase (SI) [6])	inhibitor strength (in words) (sucrase/isomaltase (SI) [6])	Ki ([4]; read-out: Kii) [mM]	GM conversion rate [5, 8] [%]	further results
O=C(O)C1OC(OCC2OC(O)(CO)C(O)C2O)C(O)C(O)C1O (centres unmarked) [Pal-C6′S, palatinose-C6′-acid]	–	0.4	8.4	strong to very strong	7	8	0.7	inhibitory action	16	31	0.22	inhibitory action	20	0.1	3.7	K	strong to very strong	–	–	–
sucrose-C6-acid [Suc-C6S]	2	–	6.2	strong to very strong	9	9	0.26	inhibitory action	43	5	–	–	–	–	1	NK	strong to very strong	4	0	Ki (sucrase/isomaltase (SI) [6]; read-out: Ki): 73 mM; Ki (sucrase/isomaltase (SI) [6]; read-out: Kii): 3 mM
N[C@H]1[C@H](O)[C@@H](CO)O[C@@]1(CO)O[C@H]1O[C@H](CO)[C@@H](O)[C@H](O)[C@H]1O [3′-aminosucrose]	–	0	11530	to a high percentage even at very low concentrations; also recorded: strong to very strong	–	–	2113	to a high percentage even at very low concentrations; also recorded: strong to very strong	–	–	3.1	to a high percentage even at very low concentrations; also recorded: strong to very strong	1	0	8.2	K	strong to very strong	17	–	enzymatic activity (sucrase/isomaltase (SI) [2]; SI/sucrose, inhibitor concentration of 1 mmol/L): no longer measurable; Ki (sucrase/isomaltase (SI) [2]; SI/sucrose, with preincubation, Dixon evaluation, read-out: Ki): 0.0065 mM; Ki (sucrase/isomaltase (SI) [2]; SI/sucrose, with preincubation, Henderson evaluation, read-out: Ki): 0.0063 mM; Ki (sucrase/isomaltase (SI) [2]; SI/sucrose, without preincubation, Dixon evaluation, read-out: Ki): 0.0052 mM; Ki (sucrase/isomaltase (SI) [2]; SI/sucrose, without preincubation, Henderson evaluation, read-out: Ki): 0.005 mM; sucrose hydrolysis inhibited (sucrase/isomaltase (SI) [2]; concentration of 5 μmol/mL): about 30%; enzymatic activity (sucrase/isomaltase (SI) [3]; SI/maltose, inhibitor concentration of 1 mmol/L): no longer measurable; Ki (sucrase/isomaltase (SI) [3]; SI/maltose, with preincubation, Dixon evaluation, read-out: Ki): 0.0046 mM; Ki (sucrase/isomaltase (SI) [3]; SI/maltose, with preincubation, Henderson evaluation, read-out: Ki): 0.0046 mM; Ki (sucrase/isomaltase (SI) [3]; SI/maltose, without preincubation, Dixon evaluation, read-out: Ki): 0.0054 mM; Ki (sucrase/isomaltase (SI) [3]; SI/maltose, without preincubation, Henderson evaluation, read-out: Ki): 0.0052 mM; maltose hydrolysis inhibited (sucrase/isomaltase (SI) [3]; concentration of 5 μmol/mL): about 50%
OC[C@H]1O[C@H](OC[C@H]2OC(O)[C@H](O)[C@@H](O)[C@@H]2O)[C@H](O)[C@@H](O)[C@@H]1O (some centres unmarked) [isomaltose, reference compound]	–	–	–	–	–	–	–	–	–	–	–	–	–	–	–	–	–	–	–	Km (sucrase/isomaltase (SI) [6]; SI/isomaltose basic kinetics, substrate, mean, 37° C., pH 7.0): 73.9 ± 6.8 mM; Vmax (sucrase/isomaltase (SI) [6]; SI/isomaltose basic kinetics, enzyme solution with maltase activity of 5 U/mL): 3.07 ± 0.18 U/mL

Further lines, with some results ahead:

SI conversion rate (sucrase/isomaltase (SI) [1]; [8]) [%]	Molecule	SI conversion rate (sucrase/isomaltase (SI) [1]; [7]) [%]	KM/Ki (sucrase/isomaltase (SI) [2]; SI/sucrose)	inhibitor strength (in words) (sucrase/isomaltase (SI) [2]; SI/sucrose)	Ki (sucrase/isomaltase (SI) [2]; [9]) [mM]	Ki (sucrase/isomaltase (SI) [2]; [10]) [mM]	KM/Ki (sucrase/isomaltase (SI) [3]; SI/maltose)	inhibitor strength (in words) (sucrase/isomaltase (SI) [3]; SI/maltose)	Ki (sucrase/isomaltase (SI) [3]; [11]) [mM]	Ki (sucrase/isomaltase (SI) [3]; [12]) [mM]	KM/Ki [4]	inhibitor strength (in words) [4]	Ki ([4]; read-out: Ki) [mM]	GM conversion rate [5, 7] [%]	KM/Ki (sucrase/isomaltase (SI) [6])	Type (of inhibition) (sucrase/isomaltase (SI) [6])	inhibitor strength (in words) (sucrase/isomaltase (SI) [6])	Ki ([4]; read-out: Kii) [mM]	GM conversion rate [5, 8] [%]	further results
85	OC[C@H]1O[C@@](CO)(O[C@H]2O[C@H](CO)[C@@H](O)[C@H](O)[C@H]2O)[C@@H](O)[C@@H]1O [Sucrose, reference compound]	87	–	–	–	–	–	–	–	–	–	–	–	–	–	–	–	–	–	–
100	OC[C@H]1O[C@H](O[C@H]2[C@H](O)[C@@H](O)C(O)O[C@@H]2CO)[C@H](O)[C@@H](O)[C@@H]1O (mixture of isomers) [Maltose, reference compound]	–	–	–	–	–	–	–	–	–	–	–	–	–	–	–	–	–	95.7	Km ([4]; GM/maltose basic kinetics, substrate, mean, 37° C., pH 7.0): 4.2 ± 1 mM; Vmax ([4]; GM/maltose basic kinetics, enzyme solution with maltase activity of 5 U/mL): 4.8 ± 0.7 U/mL
